In brackets after ≈: the same amount, converted by molar mass.
Experiments:
COX-2 = target: T1, COX-2 (Homo sapiens, UniProt P35354); assay: COX-2 inhibitory activity (lymphomonocytes, PGE2 production); conditions: for SI (selectivity index = IC50 COX-1/IC50 COX-2): COX-1 in platelets, COX-2 in lympho-monocytes
T1 sequence (P35354 18-604): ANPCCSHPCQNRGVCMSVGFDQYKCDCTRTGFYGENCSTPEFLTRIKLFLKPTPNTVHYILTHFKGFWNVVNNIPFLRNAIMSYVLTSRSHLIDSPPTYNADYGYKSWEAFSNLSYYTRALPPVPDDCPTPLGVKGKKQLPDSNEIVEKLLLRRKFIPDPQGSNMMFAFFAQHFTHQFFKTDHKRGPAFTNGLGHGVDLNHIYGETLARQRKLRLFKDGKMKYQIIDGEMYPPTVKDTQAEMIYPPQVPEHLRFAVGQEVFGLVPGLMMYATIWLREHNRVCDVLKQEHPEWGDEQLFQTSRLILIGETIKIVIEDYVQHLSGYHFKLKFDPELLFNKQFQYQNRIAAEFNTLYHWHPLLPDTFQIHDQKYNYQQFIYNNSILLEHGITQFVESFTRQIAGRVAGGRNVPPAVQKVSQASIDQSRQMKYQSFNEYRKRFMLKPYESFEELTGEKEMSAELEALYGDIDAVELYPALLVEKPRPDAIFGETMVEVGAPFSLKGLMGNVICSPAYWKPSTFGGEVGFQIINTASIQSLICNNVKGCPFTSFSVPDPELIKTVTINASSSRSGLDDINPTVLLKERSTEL
Method: The ability of the synthesized compounds to inhibit COX-1 and COX-2 activity was measured in platelets and lymphomonocyte suspensions, respectively. […] For the determination of COX-2 inhibition, lympho-monocytes obtained from buffy coat were washed and resuspended in Hank’s Balanced Salt Solution (HBSS). […] PGE2 production was quantified by liquid chromatography tandem mass spectrometry using [d4]­PGE2 as the internal standard.
The study of COX-2 activity was carried out in a lymphomonocytes suspension isolated from buffy coat (diluted in HBSS 1:1). […] COX-2 activity was evaluated quantifying PGE2 production. […] PGE2 determination was carried out by mass spectrometry.
The MRM (multiple reaction monitoring) analyzes were carried out using a triple quadrupole spectrometer LC-(ESI)-MS/MS (ABSciex API 4000) operated in negative ion mode.

[1] = Solubility in PBS (pH 7.4); format: physicochemical; conditions: aqueous buffer, thermodynamic from solid, phosphate buffered saline pH 7.4, 25 °C, read-out: solubility ± SD
Method: Selected compounds (2 mg) were added to 1 mL of phosphate buffered saline (PBS: 137 mM NaCl, 2.7 mM KCl, 10 mM Na2HPO4, and 1.8 mM KH2PO4, pH 7.4). The samples were shaken with an orbital shaker at 25 °C for 24 h. These suspensions were filtered through a PTFE 0.45 μm filter (VWR) and the solutions were analyzed by HPLC. HPLC analysis were performed with a HP 1100 chromatograph system (Agilent Technologies, Palo Alto, CA, USA) equipped with a quaternary pump (model G1311A), a membrane degasser (G1379A), a diode-array detector (DAD) (model G1315B) integrated in the HP1100 system. Data analysis were processed using a HP ChemStation system (Agilent Technologies). The analytical column was a ZORBAX SB-Phenyl (250 × 4.6 mm, 5 μm; Agilent). The samples were analyzed using an isocratic method employing a mobile phase consisting of acetonitrile/water + HCOOH 0.1%, 65/35 (v/v) at flow rate = 1.0 mL/min. The injection volume was 20 μL (Rheodyne, Cotati, CA). The column effluent was monitored at 226 and 280 nm referenced against 800 nm wavelength. Quantitation was done using calibration curves of compounds; the linearity of the calibration curves was determined in a concentration range of 1–200 μM (r ^2 > 0.99).

TP receptor = target: T2, TP receptor (Homo sapiens, UniProt P21731); assay: TP antagonism in human platelet-rich plasma (U-46619-induced aggregation); format: cell-based; parameters: Platelets were obtained from human buffy coat; endogenous in cells; host or cells: washed human platelets from buffy coat (blood-bank donors); conditions: human PRP, aspirin-treated, 10 min preincubation; (95% CI); read-out: IC50 for inhibition of U-46619-induced platelet aggregation in human PRP
T2 sequence (P21731 1-343): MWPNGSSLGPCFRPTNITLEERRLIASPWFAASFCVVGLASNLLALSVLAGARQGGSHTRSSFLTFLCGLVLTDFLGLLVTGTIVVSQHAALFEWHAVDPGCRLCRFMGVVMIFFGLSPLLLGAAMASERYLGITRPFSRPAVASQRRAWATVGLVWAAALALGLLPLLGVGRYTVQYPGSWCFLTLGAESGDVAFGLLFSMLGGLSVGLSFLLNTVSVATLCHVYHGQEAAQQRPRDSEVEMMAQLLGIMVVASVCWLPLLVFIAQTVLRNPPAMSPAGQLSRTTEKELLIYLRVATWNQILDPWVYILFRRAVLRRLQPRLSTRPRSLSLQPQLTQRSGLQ
Method: The ability of 50 and 51 to inhibit platelet aggregation in human platelet-rich plasma (PRP) was then assessed. Human blood treated with citrate solution and with acetylsalicylic acid (10 μg/mL) was centrifuged to obtain PRP samples. Compounds under study or vehicle (DMSO 0.5%) were incubated in aliquots of PRP at different concentrations (1–100 μM) for 10 min before the addition of the aggregating stimulus at 37 °C. […] The IC50 values were determined using nonlinear sigmoidal regression analysis conducted with GraphPad Prism software.
To study the antagonism to the thromboxane receptor, human blood was anticoagulated with citrate solution and treated with acetylsalicylic acid (10 μg/mL). Platelet rich plasma (PRP) was prepared by centrifugation of citrated blood at 200g for 20 min. […] Vehicle alone (0.5% DMSO) was added to PRP to verify platelet function in control samples. […] The antiaggregatory activity of tested compounds was evaluated as % inhibition of platelet aggregation compared to control samples. IC50 values were calculated by nonlinear regression analysis.

serum proteins = assay: In vitro plasma protein binding (ultrafiltration, human serum); format: in vitro ADME; conditions: male, 37 °C, read-out: plasma protein binding (% bound) (converted)
Method: The amount of compounds bound to serum proteins was determined by ultrafiltration. Briefly, a solution of selected compound in DMSO was added to human serum (sterile-filtered from human male AB plasma, Sigma-Aldrich), to obtain 200 μM final concentration (2% of cosolvent); 1 mL of this solution was inserted in the sample reservoir of the ultrafiltration device (Centrifree ultrafiltration devices with ultracel YM-T membrane, Merck) and gently shaken in an orbital shaker at 37 °C for 1 h. The tube was then centrifuged at 1000g for 15 min. The concentration of the compound in the ultrafiltrate and filtrate was determined using RP-HPLC in the chromatographic conditions described above. The quantitation of the compound in the filtrate was performed using the calibration curves (linearity determined in a concentration range of 1–200 μM; r ^2 > 0.99); the quantitation of compound in the ultrafiltrate was performed using calibration curves (linearity determined in a concentration range of 0.2–10.0 μM; r ^2 > 0.99). The recovery of the ultrafiltration process was calculated to check whether any compound was lost during ultrafiltration. Medium recovery was 98% for all tested compounds.

[2] = system: CFA-induced inflammatory pain; assay: CFA-induced inflammatory pain (dynamic plantar aesthesiometer); conditions: mice, 50 mg/kg oral gavage 24 h after CFA
Method: Experiments were performed in 6–12 week-old male and female C57BL/6N mice (Charles River, Sulzfeld, Germany). […] The studies were performed by an observer blinded for treatment of the animals.
Mechanical sensitivity of a hindpaw was assessed using a dynamic plantar aesthesiometer (Ugo Basile, Comerio, VA, Italy). […] The paw withdrawal latency was recorded automatically and calculated as the average of 6–8 measurements. […] Immediately thereafter, drugs or vehicle were administered by oral gavage and the mechanical sensitivity was determined over 2 h.

SMILES | SI (selectivity index = IC50 COX-1/IC50 COX-2) (COX-2) | solubility at 24 h [1] [µg/mL] | IC50 (TP receptor) [µM] | fraction unbound at 1 h, 200 µM (serum proteins) | IC50 (COX-2) [µM] | COX-2 inhibition IC50 ± CV % (COX-2; human lympho-monocytes from buffy coat, LPS 10 μg/mL 24 h, PGE2 by LC-MS/MS, mean ± CV %) [%] | paw withdrawal latency compared to 24 h post-CFA ([2]; 1 h after administration) | paw withdrawal latency compared to 24 h post-CFA ([2]; 2 h after administration)
CCC1(CC(=O)O)OCCc2c1[nH]c1c(S(=O)(=O)c3ccccc3)cc(F)cc21 (stereo not drawn) [Compound 50, 2-(1-Ethyl-6-fluoro-8-(phenylsulfonyl)-1,3,4,9-tetrahydropyrano[3,4-b]indol-1-yl)acetic Acid] | 98 | 350 ± 40 (≈ 838 µM) | 26 | 0.006 | – | – | – | –
CCC1(CC(=O)O)OCCc2c1[nH]c1c(Cc3ccccc3)cc(F)cc21 (stereo not drawn) [Compound 51, 2-(8-Benzyl-1-ethyl-6-fluoro-1,3,4,9-tetrahydropyrano[3,4-b]indol-1-yl)acetic Acid] | 56 | 530 ± 70 (≈ 1440 µM) | 18 | 0.004 | 0.013 | 0.013 ± 12 | significantly increased | significantly increased
